According to ChEMBL document CHEMBL1909046, “DrugMatrix in vitro pharmacology data”:

Experiments:
Melanocortin receptor 3 = Melanocortin receptor 3 (Homo sapiens, UniProt P41968); format: cell membranes, HEK293, Membrane; conditions: hek293; further: in other assays of this panel Not Active means under 50% inhibition at 10 µM
[1] = DRUGMATRIX: Sodium/nucleoside co-transporter radioligand binding (ligand: nitrobenzylthioinosine); format: cell membranes, Cavia porcellus, Dunkin-Hartley, Cerebral cortex, Membrane; conditions: Not Active = under 50% inhibition at 10 µM
[2] = DRUGMATRIX: Calcium Channel Type L, Dihydropyridine radioligand binding (ligand: [3H] Nitrendipine); format: cell membranes, Rattus norvegicus, Wistar, Cerebral cortex, Membrane; conditions: Not Active = under 50% inhibition at 10 µM
[3] = target: T1, C-X-C chemokine receptor type 1 (Homo sapiens, UniProt P25024); further: in other assays of this panel Not Active means under 50% inhibition at 10 µM
T1 sequence (P25024 whole entry): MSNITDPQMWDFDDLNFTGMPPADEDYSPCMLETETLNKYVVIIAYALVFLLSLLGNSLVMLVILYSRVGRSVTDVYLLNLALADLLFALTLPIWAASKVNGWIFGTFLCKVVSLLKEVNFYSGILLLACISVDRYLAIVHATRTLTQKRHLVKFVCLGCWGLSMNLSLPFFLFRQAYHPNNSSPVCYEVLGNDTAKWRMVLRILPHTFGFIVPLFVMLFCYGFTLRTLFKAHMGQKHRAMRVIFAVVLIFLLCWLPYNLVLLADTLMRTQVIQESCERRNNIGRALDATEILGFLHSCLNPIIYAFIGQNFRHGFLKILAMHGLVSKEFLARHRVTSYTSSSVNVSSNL

[4] = DRUGMATRIX: beta-Lactamase enzyme inhibition (substrate: Nitrocefin); set-up: species or system Bacillus cereus; conditions: Not Active = under 50% inhibition at 10 µM
Caspase-1 = target: T2, Caspase-1 (Homo sapiens, UniProt P29466); set-up: species or system Escherichia coli;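 further: Caspase-1 enzyme inhibition assay with a peptide substrate; in other assays of this panel Not Active means under 50% inhibition at 10 µM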
T2 sequence (P29466 whole entry): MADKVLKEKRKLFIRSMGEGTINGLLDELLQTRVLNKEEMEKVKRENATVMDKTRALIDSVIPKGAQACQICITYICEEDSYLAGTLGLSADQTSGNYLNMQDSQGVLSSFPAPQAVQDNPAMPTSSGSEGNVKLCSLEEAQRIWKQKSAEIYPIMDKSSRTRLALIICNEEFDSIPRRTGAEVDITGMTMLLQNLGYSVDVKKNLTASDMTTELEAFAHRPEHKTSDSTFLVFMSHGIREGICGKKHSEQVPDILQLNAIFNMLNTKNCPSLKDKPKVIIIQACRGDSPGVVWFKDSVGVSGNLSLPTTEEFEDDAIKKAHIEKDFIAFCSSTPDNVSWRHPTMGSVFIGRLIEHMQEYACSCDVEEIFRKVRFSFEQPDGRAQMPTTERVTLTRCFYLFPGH

[5] = DRUGMATRIX: Calcium Channel Type L, Phenylalkylamine radioligand binding (ligand: [3H] (-)-Desmethoxyverapamil (D-888)); format: cell membranes, Rattus norvegicus, Wistar, Brain, Membrane; conditions: Not Active = under 50% inhibition at 10 µM
[6] = target: Sigma non-opioid intracellular receptor 1 (Homo sapiens, UniProt Q99720); experiment: DRUGMATRIX: Sigma1 radioligand binding (ligand: [3H] Haloperidol); format: cell membranes, Jurkat, Membrane; conditions: jurkat; Not Active = under 50% inhibition at 10 µM
Sequence of Sigma non-opioid intracellular receptor 1 (Q99720 whole entry): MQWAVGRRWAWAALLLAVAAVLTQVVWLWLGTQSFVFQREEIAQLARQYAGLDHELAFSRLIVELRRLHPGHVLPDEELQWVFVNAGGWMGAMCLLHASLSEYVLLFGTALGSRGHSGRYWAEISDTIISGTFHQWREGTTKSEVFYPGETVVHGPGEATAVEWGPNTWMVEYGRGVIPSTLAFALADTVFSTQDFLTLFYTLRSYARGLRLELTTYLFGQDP

Sequence of Melanocortin receptor 3 (P41968 whole entry): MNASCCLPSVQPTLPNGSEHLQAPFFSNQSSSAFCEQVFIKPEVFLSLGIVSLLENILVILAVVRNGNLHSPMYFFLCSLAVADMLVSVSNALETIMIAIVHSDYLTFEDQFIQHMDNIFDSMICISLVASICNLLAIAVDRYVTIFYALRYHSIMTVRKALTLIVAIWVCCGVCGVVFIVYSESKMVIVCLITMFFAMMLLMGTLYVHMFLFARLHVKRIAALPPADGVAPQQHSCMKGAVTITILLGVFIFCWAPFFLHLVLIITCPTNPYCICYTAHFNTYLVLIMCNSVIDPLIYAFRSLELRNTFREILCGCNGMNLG

NNc1nncc2ccccc12 [HYDRALAZINE]
Not Active: IC50 (Melanocortin receptor 3) | IC50 [1] | Ki [1] | IC50 [2] | Ki [2] | IC50 [3] | IC50 [4] | Ki [4] | IC50 (Caspase-1) | IC50 [5] | Ki [5] | IC50 [6]

CC(=O)[C@@]1(O)CC[C@H]2[C@@H]3CCC4=CC(=O)CC[C@]4(C)[C@H]3CC[C@@]21C [HYDROXYPROGESTERONE]
Not Active: IC50 (Melanocortin receptor 3) | IC50 [1] | Ki [1] | IC50 [2] | Ki [2] | IC50 [3] | IC50 [4] | Ki [4] | IC50 (Caspase-1) | IC50 [5] | Ki [5] | IC50 [6]

COC1=C(OC)C(=O)C(CCCCCCCCCCO)=C(C)C1=O [IDEBENONE]
Not Active: IC50 (Melanocortin receptor 3) | IC50 [1] | Ki [1] | IC50 [2] | Ki [2] | IC50 [3] | IC50 [4] | Ki [4] | IC50 (Caspase-1) | IC50 [5] | Ki [5] | IC50 [6]

CC(C)NNC(=O)c1ccncc1 [IPRONIAZID]
Not Active: IC50 (Melanocortin receptor 3) | IC50 [1] | Ki [1] | IC50 [2] | Ki [2] | IC50 [3] | IC50 [4] | Ki [4] | IC50 (Caspase-1) | IC50 [5] | Ki [5] | IC50 [6]

Cc1c(OCC(F)(F)F)ccnc1C[S+]([O-])c1nc2ccccc2[nH]1 (configuration not stated) [LANSOPRAZOLE]
Not Active: IC50 (Melanocortin receptor 3) | IC50 [1] | Ki [1] | IC50 [2] | Ki [2] | IC50 [3] | IC50 [4] | Ki [4] | IC50 (Caspase-1) | IC50 [5] | Ki [5] | IC50 [6]

O=c1cc(N2CCOCC2)oc2c(-c3ccccc3)cccc12 [LY-294002]
Not Active: IC50 (Melanocortin receptor 3) | IC50 [1] | Ki [1] | IC50 [2] | Ki [2] | IC50 [3] | IC50 [4] | Ki [4] | IC50 (Caspase-1) | IC50 [5] | Ki [5] | IC50 [6]

COc1ccc2[nH]cc(CCNC(C)=O)c2c1 [MELATONIN]
Not Active: IC50 (Melanocortin receptor 3) | IC50 [1] | Ki [1] | IC50 [2] | Ki [2] | IC50 [3] | IC50 [4] | Ki [4] | IC50 (Caspase-1) | IC50 [5] | Ki [5] | IC50 [6]

NC(=O)C[S+]([O-])C(c1ccccc1)c1ccccc1 (configuration not stated) [MODAFINIL]
Not Active: IC50 (Melanocortin receptor 3) | IC50 [1] | Ki [1] | IC50 [2] | Ki [2] | IC50 [3] | IC50 [4] | Ki [4] | IC50 (Caspase-1) | IC50 [5] | Ki [5] | IC50 [6]

CCN(CC)CCOCCC1=CCC2CC1C2(C)C (configuration not stated) [MYRTECAINE]
Not Active: IC50 (Melanocortin receptor 3) | IC50 [1] | Ki [1] | IC50 [2] | Ki [2] | IC50 [3] | IC50 [4] | Ki [4] | IC50 (Caspase-1) | IC50 [5] | Ki [5] | IC50 [6]

O=C(O)c1cccnc1Nc1cccc(C(F)(F)F)c1 [NIFLUMIC ACID]
Not Active: IC50 (Melanocortin receptor 3) | IC50 [1] | Ki [1] | IC50 [2] | Ki [2] | IC50 [3] | IC50 [4] | Ki [4] | IC50 (Caspase-1) | IC50 [5] | Ki [5] | IC50 [6]

O=C(N/N=C/c1ccc([N+](=O)[O-])o1)c1cc([N+](=O)[O-])cc([N+](=O)[O-])c1O [NIFURSOL]
Not Active: IC50 (Melanocortin receptor 3) | IC50 [1] | Ki [1] | IC50 [2] | Ki [2] | IC50 [3] | IC50 [4] | Ki [4] | IC50 (Caspase-1) | IC50 [5] | Ki [5] | IC50 [6]

COC(=O)Nc1nc2ccc(C(=O)c3cccs3)cc2[nH]1 [NOCODAZOLE]
Not Active: IC50 (Melanocortin receptor 3) | IC50 [1] | Ki [1] | IC50 [2] | Ki [2] | IC50 [3] | IC50 [4] | Ki [4] | IC50 (Caspase-1) | IC50 [5] | Ki [5] | IC50 [6]

C#CC1(O)CC[C@H]2[C@@H]3CCC4=CC(=O)CC[C@@H]4[C@H]3CC[C@@]21CC (some centres not stated) [NORGESTREL]
Not Active: IC50 (Melanocortin receptor 3) | IC50 [1] | Ki [1] | IC50 [2] | Ki [2] | IC50 [3] | IC50 [4] | Ki [4] | IC50 (Caspase-1) | IC50 [5] | Ki [5] | IC50 [6]

COC(=O)Nc1nc2ccc([S+]([O-])c3ccccc3)cc2[nH]1 (configuration not stated) [OXFENDAZOLE]
Not Active: IC50 (Melanocortin receptor 3) | IC50 [1] | Ki [1] | IC50 [2] | Ki [2] | IC50 [3] | IC50 [4] | Ki [4] | IC50 (Caspase-1) | IC50 [5] | Ki [5] | IC50 [6]

CC(=O)O[C@H]1C(=O)[C@@]2(C)[C@H]([C@H](OC(=O)c3ccccc3)[C@]3(O)C[C@H](OC(=O)[C@H](O)[C@@H](NC(=O)c4ccccc4)c4ccccc4)C(C)=C1C3(C)C)[C@]1(OC(C)=O)CO[C@@H]1C[C@@H]2O [PACLITAXEL]
Not Active: IC50 (Melanocortin receptor 3) | IC50 [1] | Ki [1] | IC50 [2] | Ki [2] | IC50 [3] | IC50 [4] | Ki [4] | IC50 (Caspase-1) | IC50 [5] | Ki [5] | IC50 [6]

C[n+]1ccc(-c2cc[n+](C)cc2)cc1.[Cl-].[Cl-] [PARAQUAT DICHLORIDE]
Not Active: IC50 (Melanocortin receptor 3) | IC50 [1] | Ki [1] | IC50 [2] | Ki [2] | IC50 [3] | IC50 [4] | Ki [4] | IC50 (Caspase-1) | IC50 [5] | Ki [5] | IC50 [6]

CC(C)NCC(O)COc1cccc2[nH]ccc12 (configuration not stated) [PINDOLOL]
Not Active: IC50 (Melanocortin receptor 3) | IC50 [1] | Ki [1] | IC50 [2] | Ki [2] | IC50 [3] | IC50 [4] | Ki [4] | IC50 (Caspase-1) | IC50 [5] | Ki [5] | IC50 [6]

CCn1cc(C(=O)O)c(=O)c2cnc(N3CCCC3)nc21 [PIROMIDIC ACID]
Not Active: IC50 (Melanocortin receptor 3) | IC50 [1] | Ki [1] | IC50 [2] | Ki [2] | IC50 [3] | IC50 [4] | Ki [4] | IC50 (Caspase-1) | IC50 [5] | Ki [5] | IC50 [6]

C[n+]1ccccc1/C=N/O.[Cl-] [PRALIDOXIME CHLORIDE]
Not Active: IC50 (Melanocortin receptor 3) | IC50 [1] | Ki [1] | IC50 [2] | Ki [2] | IC50 [3] | IC50 [4] | Ki [4] | IC50 (Caspase-1) | IC50 [5] | Ki [5] | IC50 [6]

COc1cc2nc(N3CCN(C(=O)c4ccco4)CC3)nc(N)c2cc1OC [PRAZOSIN]
Not Active: IC50 (Melanocortin receptor 3) | IC50 [1] | Ki [1] | IC50 [2] | Ki [2] | IC50 [3] | IC50 [4] | Ki [4] | IC50 (Caspase-1) | IC50 [5] | Ki [5] | IC50 [6]

C[C@]12C=CC(=O)C=C1CC[C@@H]1[C@@H]2[C@@H](O)C[C@@]2(C)[C@H]1CC[C@]2(O)C(=O)CO [PREDNISOLONE]
Not Active: IC50 (Melanocortin receptor 3) | IC50 [1] | Ki [1] | IC50 [2] | Ki [2] | IC50 [3] | IC50 [4] | Ki [4] | IC50 (Caspase-1) | IC50 [5] | Ki [5] | IC50 [6]
